Test results published in patent US12258345B1, “Pyrrolo[3,2-c]isoquinoline-2,3-dione compounds as CK2 inhibitors” (KING FAISAL UNIVERSITY, priority 2023, dated 2025).

Columns and labels:
PC3 (prostate) = assay: MTT in vitro cytotoxic activity assay, PC3; type: cell-based; settings: Homo sapiens, 96 h incubation, read-out: Cytotoxicity activity, PC3 (prostate)
Procedure: (§1) Compounds 1-16 were screened for their in vitro cytotoxic behavior using a 3-(4,5-dimethyl-thiazol-2-yl)-2,5-diphenyltetrazolium bromide (MTT) assay against selected cancer human cell lines consisting of PC3 (prostate), HCT116 (colon), A375 (melanoma), H1299 (lung), MIAPaCa-2 (pancreas), HL60 (leukemia), MCF7 (breast), MDA-MB-231 (breast) (T. Mosmann, J. Immunol. Meth., 1983, 65, 55-63). The cells were cultured at 37° C. in RMPI1640 medium supplemented with 10% fetal bovine serum, 50 IU/mL penicillin, and 50 μg/mL streptomycin in a 5% CO2 incubator. All cells were sub-cultured 3 times/week by trypsinisation. Viable cells were seeded and allowed to adhere for 12 h before a test drug was added in 96-well plates at an initial density of 1.0×10^5 cells/mL. Tumor cell lines were separately exposed to various concentrations of the tested compounds followed by incubation at a temperature of 37° C. during 96 h inside a medium of fresh RMPI 1640. Cells were subsequently incubated at 37° C. using MTT at 0.5 mg/mL for 4 hours. After removal of supernatant, formazan crystals were dissolved in isopropanol and the optical density was measured at 570 nm. CX-4945 was used as a positive control.

HCT116 (colon) = assay: MTT in vitro cytotoxic activity assay, HCT116; type: cell-based; settings: Homo sapiens, HCT-116, 96 h incubation, read-out: Cytotoxicity activity, HCT116 (colon)
Procedure: as §1

A375 (melanoma) = assay: MTT in vitro cytotoxic activity assay, A375; type: cell-based; settings: Homo sapiens, A-375, 96 h incubation, read-out: Cytotoxicity activity, A375 (melanoma)
Procedure: as §1

H1299 (lung) = assay: MTT in vitro cytotoxic activity assay, H1299; type: cell-based; settings: Homo sapiens, NCI-H1299, 96 h incubation, read-out: Cytotoxicity activity, H1299 (lung)
Procedure: as §1

MIAPaCa-2 (pancreas) = assay: MTT in vitro cytotoxic activity assay, MIAPaCa-2; type: cell-based; settings: Homo sapiens, MIA PaCa-2, 96 h incubation, read-out: Cytotoxicity activity, MIAPaCa-2 (pancreas)
Procedure: as §1

HL60 (leukemia) = assay: MTT in vitro cytotoxic activity assay, HL60; type: cell-based; settings: Homo sapiens, HL-60, 96 h incubation, read-out: Cytotoxicity activity, HL60 (leukemia)
Procedure: as §1

MCF7 (breast) = assay: MTT in vitro cytotoxic activity assay, MCF7; type: cell-based; settings: Homo sapiens, 96 h incubation, read-out: Cytotoxicity activity, MCF7 (breast)
Procedure: as §1

MDA-MB-231 (breast) = assay: MTT in vitro cytotoxic activity assay, MDA-MB-231; type: cell-based; settings: Homo sapiens, 96 h incubation, read-out: Cytotoxicity activity, MDA-MB-231 (breast)
Procedure: as §1

[1] = target: T1, recombinant human CK2 (RRBB-holoenzyme) (Homo sapiens, UniProt P68400); assay: CK2 Kinase Assay (33P-ATP, substrate peptide RRRDDDSDDD); type: biochemical; settings: final ATP concentration 15 μM, 10 min at 30° C.; read-out: protein kinase CK2 activity IC50
T1 construct: purchased Millipore
Procedure: CK2 Kinase Assay was conducted using the previously described protocol (Pierre F. et al; J. Med. Chem. 2011, 54, 635-654). The tested compounds in aqueous solution were added at a volume of 10 μL to a reaction mixture comprising 10 μL of assay dilution buffer (ADB; 20 mM MOPS, pH 7.2, 25 mM β-glycerol phosphate, 5 mM EGTA, 1 mM sodium orthovanadate, and 1 mM dithiothreitol), 10 μL of substrate peptide (RRRDDDSDDD, dissolved in ADB at a concentration of 1 mM), 10 μL of recombinant human CK2 (RRBB-holoenzyme, 25 ng dissolved in ADB; Millipore). Reactions were initiated by the addition of 10 μL of ATP solution (90% 75 mMMgCl2, 75 μM ATP (final ATP concentration: 15 μM) dissolved in ADB; 10% [γ-33P] ATP (stock 1 mCi/100 μL; 3000 Ci/mmol (Perkin-Elmer) and maintained for 10 min at 30° C. The reactions were quenched with 100 μL of 0.75% phosphoric acid and then transferred to and filtered through a phosphor cellulose filter plate (Millipore). After washing each well five times with 0.75% phosphoric acid, the plate was dried under vacuum for 5 min and, following the addition of 15 μL of scintillation fluid to each well, the residual radioactivity was measured using a Wallac […] counter. The IC50 values were derived from eight concentrations of test inhibitors.

[2] = test system: various human cancer cell lines; assay: MTT in vitro cytotoxic activity assay, panel of human cancer cell lines; type: cell-based; settings: MCF7, MDA-MB-231, H1299, PC3, HCT116, A375, MIAPaCa-2, HL60
Procedure: as §1

T1 sequence (P68400 whole entry): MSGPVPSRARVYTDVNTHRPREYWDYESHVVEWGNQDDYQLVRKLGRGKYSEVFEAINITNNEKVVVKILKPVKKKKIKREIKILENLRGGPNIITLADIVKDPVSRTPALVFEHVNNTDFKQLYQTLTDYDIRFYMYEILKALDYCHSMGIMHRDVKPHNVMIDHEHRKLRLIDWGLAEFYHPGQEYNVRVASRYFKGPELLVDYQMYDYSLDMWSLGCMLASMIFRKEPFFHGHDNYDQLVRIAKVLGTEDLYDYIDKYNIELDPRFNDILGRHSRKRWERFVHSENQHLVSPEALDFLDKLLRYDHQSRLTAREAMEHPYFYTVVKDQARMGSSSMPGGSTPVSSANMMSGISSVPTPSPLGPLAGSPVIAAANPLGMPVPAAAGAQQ
T1 sequence (P67870 whole entry partner): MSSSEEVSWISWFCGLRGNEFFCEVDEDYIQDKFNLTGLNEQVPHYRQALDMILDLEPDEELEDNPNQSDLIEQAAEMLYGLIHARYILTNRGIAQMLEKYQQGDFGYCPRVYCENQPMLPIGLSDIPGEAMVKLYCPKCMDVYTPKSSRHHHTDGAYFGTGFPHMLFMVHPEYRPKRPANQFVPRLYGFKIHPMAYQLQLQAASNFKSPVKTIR

## O=C1Nc2c(nc(Nc3cccc(Cl)c3)c3cc(C(=O)O)ccc23)C1=O [Compound 1, 5-((3-chlorophenyl)amino)-2,3-dioxo-2,3-dihydro-1H-pyrrolo[3,2-c]isoquinoline-7-carboxylic acid]
PC3 (prostate)
  IC50: 1100 nM
HCT116 (colon)
  IC50: 1500 nM
A375 (melanoma)
  IC50: 3.1 µM
H1299 (lung)
  IC50: 1700 nM
MIAPaCa-2 (pancreas)
  IC50: 1100 nM
HL60 (leukemia)
  IC50: 3.9 µM
MCF7 (breast)
  IC50: 5.4 µM
MDA-MB-231 (breast)
  IC50: 3.8 µM
[1]
  IC50: 38 nM
[2]
  in vitro anti-proliferative / anticancer activity against human cancer cell lines (in words): promising in vitro anti-proliferative activity
